In ChEMBL document CHEMBL1128087, “Novel substituted indolocarbazoles as potent and selective inhibitors of protein kinase C” (Bioorg Med Chem Lett, 1995):

Target: cAMP-dependent protein kinase (PKA) (Homo sapiens) (UniProt P22694+P17612+P22612)
Assay: In vitro inhibitory activity against Protein Kinase A at a concentration of 10 uM
Assay type: protein assay

O=C(CCn1c2ccccc2c2c3c(c4c5ccccc5[nH]c4c21)C(=O)NC3)NCCN1CCCCC1
inhibition: 42%

COC(=O)c1cc(C(=O)c2cc(C(=O)c3cc(NC(=O)CCn4c5ccccc5c5c6c(c7c8ccccc8[nH]c7c54)C(=O)NC6)cn3C)cn2C)cn1C
inhibition: 40%

CN1CCCC1CCNC(=O)CCn1c2ccccc2c2c3c(c4c5ccccc5[nH]c4c21)C(=O)NC3 (stereo not drawn)
inhibition: 25%

COC(=O)c1cc(C(=O)c2cc(NC(=O)CCn3c4ccccc4c4c5c(c6c7ccccc7[nH]c6c43)C(=O)NC5)cn2C)cn1C
inhibition: 43%

O=C(CCn1c2ccccc2c2c3c(c4c5ccccc5[nH]c4c21)C(=O)NC3)NCCN1CCOCC1
inhibition: 49%

O=C(CCn1c2ccccc2c2c3c(c4c5ccccc5[nH]c4c21)C(=O)NC3)NCC1CCOC1 (stereo not drawn)
inhibition: 41%

COC(=O)c1cc(NC(=O)CCn2c3ccccc3c3c4c(c5c6ccccc6[nH]c5c32)C(=O)NC4)cn1C
inhibition: 40%

CN(C)CCCNC(=O)CCn1c2ccccc2c2c3c(c4c5ccccc5[nH]c4c21)C(=O)NC3
inhibition: 41%
